From patent publication US20160143913A1, “COMBINATION” (Novartis AG, priority 2009, published 2016)
Like-named read-outs stand apart in the source and are kept apart here.

Experiments:
[1] = system: RKO; assay: Cell growth inhibition assay (Cell Titer Glo), RKO; format: cell-based; details: Homo sapiens, 72 h; RKO colon; BRAF_V600E; PIK3CA_H1047R; single agent, 3 days, mean ± std
Text: (§1) Human breast tumor line, MDA-MB-175-VII, human colon tumor lines, Colo-205, DLD-1, HCT-8, HT-29, LS-1034, NCI-H508, RKO, SW1417, SW1463, SW480, SW837 and T84, and human lung tumor lines, A427, A549, Calu 3, Calu 6, HCC827, NCI-H1155, NCI-H1355, NCI-H1792, NCI-H23, NCI-H727, SW1573 and SW900 were from ATCC. Human breast tumor line EFM-19 was from German Collection of Microorganisms and Cell Cultures. Human lung tumor line COR-L23 was from European Collection of Cell Cultures (UK). Human colon tumor line KM12 and human lung tumor line Hop62 were from National Cancer Institute. MV522 was from University of California at San Diego. All lines were cultured in RPMI 1640 medium containing 10% fetal bovine serum (FBS).
(§2) All cells were cultured for a minimum of 72 hours prior to cell plating. […] ATP levels were determined by adding Cell Titer Glo® (Promega) according to the manufacturer's protocol. Briefly, Cell Titer Glo® was added each plate, incubated for 30 minutes then luminescent signal was read on the SpectraMax L plate reader with a 0.5 sec integration time.
(§3) Inhibition of cell growth was estimated after treatment with compound or combination of compounds for three days and comparing the signal to cells treated with vehicle (DMSO). Cell growth was calculated relative to vehicle (DMSO) treated control wells. […]

[2] = system: HOP62; assay: Cell growth inhibition assay (Cell Titer Glo), HOP62; format: cell-based; details: Homo sapiens, HOP-62, 72 h; HOP62 lung; KRAS_G12C; PIK3CA/PTEN WT; single agent, 3 days, mean ± std
Text: as §1, §2, §3

[3] = system: SW1573; assay: Cell growth inhibition assay (Cell Titer Glo), SW1573; format: cell-based; details: Homo sapiens, 72 h; SW1573 lung; KRAS_G12C; PIK3CA_K111E; single agent, 3 days, mean ± std
Text: as §1, §2, §3

[4] = system: NCI-H727; assay: Cell growth inhibition assay (Cell Titer Glo), NCI-H727; format: cell-based; details: Homo sapiens, 72 h; NCI-H727 lung; KRAS_G12V; PIK3CA/PTEN WT; single agent, 3 days, mean ± std
Text: as §1, §2, §3

[5] = system: HT-29; assay: Cell growth inhibition assay (Cell Titer Glo), HT-29; format: cell-based; details: Homo sapiens, 72 h; HT-29 colon; BRAF_V600E; PIK3CA_P449T; single agent, 3 days, mean ± std
Text: as §1, §2, §3

[6] = system: SW900; assay: Cell growth inhibition assay (Cell Titer Glo), SW900; format: cell-based; details: Homo sapiens, 72 h; SW900 lung; KRAS_G12V; PIK3CA/PTEN WT; single agent, 3 days, mean ± std
Text: as §1, §2, §3

[7] = system: SW1463; assay: Cell growth inhibition assay (Cell Titer Glo), SW1463; format: cell-based; details: Homo sapiens, 72 h; SW1463 colon; KRAS_G12C; PIK3CA/PTEN WT; single agent, 3 days, mean ± std
Text: as §1, §2, §3

[8] = system: human colon tumor lines; assay: Cell growth inhibition assay, colon lines; format: cell-based
Text: as §1
as §2, with “plating. Cells were assayed in a 96-well tissue culture plate (NUNC 136102) of RPMI medium containing 10% FBS for all cells at 1,000 cells per well.” for “plating.”
as §3
(§4) Combination effects on potency were evaluated using Combination Index (CI) which was calculated with the back-interpolated IC50 values and the mutually non-exclusive equation derived by Chou and Talalay (1): […]
(§5) The combination effects on the response scale were quantified by Excess Over Highest Single Agent (EOHSA) based on the concept of nonlinear blending as described in detail by Peterson and Novick (2007) and Peterson (2010) [(2;3) [Peterson and Novick, 2007; Peterson, 2010]. […]

[9] = system: EFM-19; assay: Cell growth inhibition assay (Cell Titer Glo), EFM-19; format: cell-based; details: Homo sapiens, EFM-19, 72 h, EFM-19 breast; KRAS/RAF WT; PIK3CA_H1049L; single agent, 3 days, mean ± std
Text: as §1, §2, §3

[10] = system: NCI-H1155; assay: Cell growth inhibition assay (Cell Titer Glo), NCI-H1155; format: cell-based; details: Homo sapiens, 72 h; NCI-H1155 lung; KRAS_Q61H; PTEN_R233*; single agent, 3 days, mean ± std
Text: as §1, §2, §3

[11] = system: NCI-H1355; assay: Cell growth inhibition assay (Cell Titer Glo), NCI-H1355; format: cell-based; details: Homo sapiens, 72 h; NCI-H1355 lung; KRAS_G13C; PIK3CA/PTEN WT; single agent, 3 days, mean ± std
Text: as §1, §2, §3

[12] = system: MDA-MB-175-VII; assay: Cell growth inhibition assay (Cell Titer Glo), MDA-MB-175-VII; format: cell-based, Human; details: for IC50: Homo sapiens, 72 h, MDA-MB-175-VII breast, KRAS/RAF WT, PIK3CA/PTEN WT, single agent, 3 days, mean ± std
Text: as §1
as §2, with “plating. Cells were assayed in a 96-well tissue culture plate (NUNC 136102) of RPMI medium containing 10% FBS for all cells at 1,000 cells per well.” for “plating.”
as §3, §4, §5

[13] = system: Calu6; assay: Cell growth inhibition assay (Cell Titer Glo), Calu6; format: cell-based; details: Homo sapiens, Calu-6, 72 h; Calu6 lung; KRAS_Q61K; PIK3CA/PTEN WT; single agent, 3 days, mean ± std
Text: as §1, §2, §3

[14] = system: KM12; assay: Cell growth inhibition assay (Cell Titer Glo), KM12; format: cell-based; details: Homo sapiens, 72 h; KM12 colon; KRAS/RAF WT; PTEN_K267*; single agent, 3 days, mean ± std
Text: as §1, §2, §3

[15] = system: A427; assay: Cell growth inhibition assay (Cell Titer Glo), A427; format: cell-based; details: Homo sapiens, A-427, 72 h; A427 lung; KRAS_G12D; PIK3CA/PTEN WT; single agent, 3 days, mean ± std
Text: as §1, §2, §3

[16] = system: HCT-8; assay: Cell growth inhibition assay (Cell Titer Glo), HCT-8; format: cell-based; details: Homo sapiens, 72 h; HCT-8 colon; KRAS_G13D; PIK3CA_E545K; single agent, 3 days, mean ± std
Text: as §1, §2, §3

[17] = system: SW480; assay: Cell growth inhibition assay (Cell Titer Glo), SW480; format: cell-based; details: Homo sapiens, 72 h; SW480 colon; PIK3CA/PTEN WT; single agent, 3 days, mean ± std
Text: as §1, §2, §3

[18] = system: SW1417; assay: Cell growth inhibition assay (Cell Titer Glo), SW1417; format: cell-based; details: Homo sapiens, 72 h; SW1417 colon; BRAF_V600E; PIK3CA/PTEN WT; single agent, 3 days, mean ± std
Text: as §1, §2, §3

[19] = system: human lung tumor lines; assay: Cell growth inhibition assay, lung tumor lines; format: cell-based; details: COR-L23, A549, NCI-H1355, NCI-H1792, NCI-H23, Calu 6 and MV522, range over the lines, read-out: IC50s, single agent
Text: as §1, §2, §3

[20] = system: MV522; assay: Cell growth inhibition assay (Cell Titer Glo), MV522; format: cell-based; details: Homo sapiens, 72 h; MV522 lung; BRAF_V600E; PIK3CA/PTEN WT; single agent, 3 days, mean ± std
Text: as §1, §2, §3

[21] = system: LS-1034; assay: Cell growth inhibition assay (Cell Titer Glo), LS-1034; format: cell-based; details: Homo sapiens, 72 h; LS-1034 colon; KRAS_A146T; PIK3CA/PTEN WT; single agent, 3 days, mean ± std
Text: as §1, §2, §3

[22] = system: HCC827; assay: Cell growth inhibition assay (Cell Titer Glo), HCC827; format: cell-based; details: Homo sapiens, 72 h; HCC827 lung; KRAS/RAF WT; PIK3CA/PTEN WT; EGFR E746_A750 deletion mutation; single agent, 3 days, mean ± std
Text: as §1, §2, §3

[23] = system: T84; assay: Cell growth inhibition assay (Cell Titer Glo), T84; format: cell-based; details: Homo sapiens, 72 h; T84 colon; KRAS_G13D; PrK3CA_E542K; single agent, 3 days, mean ± std
Text: as §1, §2, §3

[24] = system: COR-L23; assay: Cell growth inhibition assay (Cell Titer Glo), COR-L23; format: cell-based; details: Homo sapiens, 72 h; COR-L23 lung; KRAS_G12V; PIK3CA/PTEN WT; single agent, 3 days, mean ± std
Text: as §1, §2, §3

[25] = system: NCI-H508; assay: Cell growth inhibition assay (Cell Titer Glo), NCI-H508; format: cell-based; details: Homo sapiens, 72 h; NCI-H508 colon; BRAF_G596R; PIK3CA_E545K; single agent, 3 days, mean ± std
Text: as §1, §2, §3

[26] = system: CaLu3; assay: Cell growth inhibition assay (Cell Titer Glo), CaLu3; format: cell-based; details: Homo sapiens, Calu-3, 72 h; CaLu3 lung; KRAS/RAF WT; PIK3CA/PTEN WT; HER2+; single agent, 3 days, mean ± std
Text: as §1, §2, §3

[27] = system: Colo-205; assay: Cell growth inhibition assay (Cell Titer Glo), Colo-205; format: cell-based; details: Homo sapiens, 72 h; Colo-205 colon; BRAF_V600E; PIK3CA/PTEN WT; single agent, 3 days, mean ± std
Text: as §1, §2, §3

[28] = system: NCI-H1792; assay: Cell growth inhibition assay (Cell Titer Glo), NCI-H1792; format: cell-based; details: Homo sapiens, 72 h; NCI-H1792 lung; KRAS_G12C; PIK3CA/PTEN WT; single agent, 3 days, mean ± std
Text: as §1, §2, §3

[29] = system: NCI-H23; assay: Cell growth inhibition assay (Cell Titer Glo), NCI-H23; format: cell-based; details: Homo sapiens, 72 h; NCI-H23 lung; KRAS_G12C; PIK3CA/PTEN WT; single agent, 3 days, mean ± std
Text: as §1, §2, §3

[30] = system: SW837; assay: Cell growth inhibition assay (Cell Titer Glo), SW837; format: cell-based; details: Homo sapiens, 72 h; SW837 colon; KRAS_G12C; PIK3CA/PTEN WT; single agent, 3 days, mean ± std
Text: as §1, §2, §3

[31] = system: DLD1; assay: Cell growth inhibition assay (Cell Titer Glo), DLD1; format: cell-based; details: Homo sapiens, DLD-1, 72 h; DLD1 colon; KRAS_G13D; PIK3CA_E545K; single agent, 3 days, mean ± std
Text: as §1, §2, §3

| Compound | IC50 [1] [nM] | IC50 [2] [nM] | IC50 [3] [nM] | IC50 [6] [nM] | IC50 [7] [nM] | IC50 [11] [nM] | IC50 [12] [nM] | IC50 [13] [nM] | IC50 [14] [nM] | IC50 [15] [nM] | IC50 [17] [nM] | IC50 [18] [nM] | IC50 [19] [nM] | IC50 [21] [nM] | IC50 [22] [nM] | IC50 [23] [nM] | IC50 [24] [nM] | IC50 [26] [nM] | IC50 [27] [nM] | IC50 [28] [nM] | other results |
| --- | --- | --- | --- | --- | --- | --- | --- | --- | --- | --- | --- | --- | --- | --- | --- | --- | --- | --- | --- | --- | --- |
| CC(=O)Nc1cccc(-n2c(=O)n(C3CC3)c(=O)c3c(Nc4ccc(I)cc4F)n(C)c(=O)c(C)c32)c1 [Compound A, N-{3-[3-cyclopropyl-5-(2-fluoro-4-iodo-phenylamino)-6,8-dimethyl-2,4,7-trioxo-3,4,6,7-tetrahydro-2H-pyrido[4,3-d]pyrimidin-1-yl]phenyl}acetamide] | 18 ± 1 | > 1000 | > 1000 | 127 | 4 ± 3 | 52 ± 10 | 96 ± 33 | 4 ± 3 | 23 ± 21 | 22 ± 3 | 37 ± 15 | 3 ± 1 | 2 to 329 | 5 | > 1000 | 61 ± 31 | 329 ± 237 | 158 ± 19 | 1 | 53 ± 16 | IC50 [4]: 2 nM; IC50 [5]: 2 ± 1 nM; IC50 ([8]; LS-1034, Colo-205, SW1463, HT29, SW480 and SW1417, read-out: IC50, single agent): ≤ 37 nM; IC50 ([8]; colon lines depicted in Table 1, range over the lines, read-out: IC50s, single agent): 1 to 632 nM; IC50 [9]: > 1000 nM; IC50 [10]: > 1000 nM; sensitivity as a single agent (in words) ([12]; MDA-MB-175-VII cells): sensitive; IC50 [16]: 55 ± 11 nM; IC50 [20]: 2 ± 1 nM; IC50 [25]: 23 ± 2 nM |
| Cn1ncc(Cl)c1-c1cc(C(=O)N[C@H](CN)Cc2cccc(F)c2)sc1Cl [Compound B, N-{(1S)-2-amino-1-[(3-fluorophenyl)methyl]ethyl}-5-chloro-4-(4-chloro-1-methyl-1H-pyrazol-5-yl)-2-thiophenecarboxamide] | 1810 ± 674 | > 10000 | > 8000 | > 10000 | 9720 ± 139 | 6680 ± 3490 | < 1000 | 2150 ± 890 | 2250 ± 1180 | > 8000 | > 10000 | > 10000 | 2000 to 7000 | 4340 ± 1770 | > 8000 | > 10000 | 5370 ± 3520 | > 8000 | 2570 ± 137 | 7310 ± 2870 | IC50 ([8]; a subset of these colon cell lines (modest sensitivity), range over the lines, read-out: IC50 values, single agent): 500 to 5000 nM; IC50 [29]: 7120 ± 3800 nM; IC50 [30]: > 10000 nM; IC50 [31]: > 10000 nM |
